8 molecules from patent publication US20240018161A1, “MODULATORS OF CYSTIC FIBROSIS TRANSMEMBRANE CONDUCTANCE REGULATOR” (VERTEX PHARMACEUTICALS INCORPORATED, priority 2020, published 2024) can be followed below.

The conditions of data set [1]: from 3-[[4-[(1-benzylpiperazin-2-yl)methoxy]-6-(2,6-dimethylphenyl)pyrimidin-2-yl]sulfamoyl]benzoic acid (Dihydrochloride salt); amide bond; 14-membered ring; HATU/DIEA; DMF; 12.7 mM; 25.0 °C; 3 steps.
Data set [2] deals with T1, CFTR-mediated short-circuit current in F508del/MF-HBE cells (Homo sapiens, UniProt P13569, DEL508-508).
T1 construct: human bronchial epithelial (HBE) cells derived from CF subjects; endogenous in cells; host or cells: primary human bronchial epithelial cells from CF subjects (F508del/MF-HBE)
T1 sequence (P13569 with tags, fused parts or gaps DEL508-508): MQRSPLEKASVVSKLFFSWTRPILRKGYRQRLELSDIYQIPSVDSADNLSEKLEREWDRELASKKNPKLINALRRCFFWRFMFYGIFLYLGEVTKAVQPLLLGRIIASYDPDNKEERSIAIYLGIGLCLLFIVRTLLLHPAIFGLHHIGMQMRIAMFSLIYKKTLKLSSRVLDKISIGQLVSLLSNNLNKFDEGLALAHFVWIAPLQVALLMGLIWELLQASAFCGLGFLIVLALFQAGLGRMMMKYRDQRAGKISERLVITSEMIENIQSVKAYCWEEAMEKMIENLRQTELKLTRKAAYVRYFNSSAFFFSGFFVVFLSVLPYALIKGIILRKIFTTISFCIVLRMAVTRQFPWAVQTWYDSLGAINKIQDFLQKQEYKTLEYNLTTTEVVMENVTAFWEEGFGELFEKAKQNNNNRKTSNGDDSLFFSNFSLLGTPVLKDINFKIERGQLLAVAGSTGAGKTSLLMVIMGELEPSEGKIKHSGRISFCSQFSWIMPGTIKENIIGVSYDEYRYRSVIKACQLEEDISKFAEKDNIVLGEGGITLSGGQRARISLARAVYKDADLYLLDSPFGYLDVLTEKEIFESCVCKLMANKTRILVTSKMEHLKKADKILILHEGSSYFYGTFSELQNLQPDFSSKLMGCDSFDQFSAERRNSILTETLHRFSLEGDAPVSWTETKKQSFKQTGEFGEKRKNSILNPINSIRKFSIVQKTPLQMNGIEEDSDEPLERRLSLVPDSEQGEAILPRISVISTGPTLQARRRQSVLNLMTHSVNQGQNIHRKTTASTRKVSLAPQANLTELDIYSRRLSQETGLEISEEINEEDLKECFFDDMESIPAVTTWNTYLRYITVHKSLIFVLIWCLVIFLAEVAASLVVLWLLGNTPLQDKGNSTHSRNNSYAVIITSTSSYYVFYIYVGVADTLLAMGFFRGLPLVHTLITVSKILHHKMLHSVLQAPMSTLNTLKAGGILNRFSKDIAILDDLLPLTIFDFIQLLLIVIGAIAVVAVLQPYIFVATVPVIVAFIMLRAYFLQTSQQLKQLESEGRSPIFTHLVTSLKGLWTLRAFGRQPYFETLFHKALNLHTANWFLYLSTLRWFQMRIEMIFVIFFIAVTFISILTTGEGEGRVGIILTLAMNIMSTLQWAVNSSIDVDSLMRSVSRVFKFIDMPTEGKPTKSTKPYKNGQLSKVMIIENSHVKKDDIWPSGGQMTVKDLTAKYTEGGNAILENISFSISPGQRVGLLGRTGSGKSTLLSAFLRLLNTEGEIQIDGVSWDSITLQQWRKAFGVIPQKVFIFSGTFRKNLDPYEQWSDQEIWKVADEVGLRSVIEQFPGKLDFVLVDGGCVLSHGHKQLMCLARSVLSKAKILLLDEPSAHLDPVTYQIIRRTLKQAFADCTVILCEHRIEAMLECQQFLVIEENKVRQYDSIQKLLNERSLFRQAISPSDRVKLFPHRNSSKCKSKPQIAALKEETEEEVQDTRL
Nature of the data set: HBE assay: Ussing chamber assay of CFTR-mediated short-circuit currents. In kind it is cell-based. The settings on record: for EC50: read-out: HBE EC50; for Emax: read-out: HBE Max Activity (%). Here is the method:
(§1) 1. Ussing Chamber Assay of CFTR-Mediated Short-Circuit Currents
(§2) Ussing chamber experiments were performed using human bronchial epithelial (HBE) cells derived from CF subjects heterozygous for F508del and a minimal function CFTR mutation (F508del/MF-HBE) and cultured as previously described (Neuberger T, Burton B, Clark H, Van Goor F Methods Mol Biol 2011:741:39-54). After four days the apical media was removed, and the cells were grown at an air liquid interface for >14 days prior to use.
(§3) To isolate the CFTR-mediated short-circuit (ISC) current, F508del/MF-HBE grown on Costar® Snapwell™ cell culture inserts were mounted in an Ussing chamber and the transepithelial ISC was measured under voltage-clamp recording conditions (Vhold=0 mV) at 37° C. The basolateral solution contained (in mM) 145 NaCl, 0.83 K2HPO4, 3.3 KH2PO4, 1.2 MgCl2, 1.2 CaCl2), 10 Glucose, 10 HEPES (pH adjusted to 7.4 with NaOH) and the apical solution contained (in mM) 145 NaGluconate, 1.2 MgCl2, 1.2 CaCl2, 10 glucose, 10 HEPES (pH adjusted to 7.4 with NaOH) and 30 μM amiloride to block the epithelial sodium channel. Forskolin (20 μM) was added to the apical surface to activate CFTR, followed by apical addition of a CFTR inhibitor cocktail consisting of BPO, GlyH-101, and CFTR inhibitor 172 (each at 20 μM final assay concentration) to specifically isolate CFTR currents. The CFTR-mediated ISC (μA/cm^2) for each condition was determined from the peak forskolin response to the steady-state current following inhibition.
(§4) 2. Identification of Corrector Compounds
(§5) The activity of the CFTR corrector compounds on the CFTR-mediated ISC was determined in Ussing chamber studies as described above. The F508del/MF-HBE cell cultures were either incubated with the corrector compounds at a range of concentrations in combination with 1 μM Ivacaftor or were incubated with the corrector compounds at a single fixed concentration of 10 μM in combination with 1 μM Ivacaftor for 18-24 hours at 37° C. and in the presence of 20% human serum. The concentration of corrector compounds with 1 μM Ivacaftor during the 18-24 hours incubations was kept constant throughout the Ussing chamber measurement of the CFTR-mediated ISC to ensure compounds were present throughout the entire experiment.
as §3, with “CaCl2,” for “CaCl2),”

The target in data set [3] is T1, CFTR-mediated short-circuit current in F508del/MF-HBE cells. The data set is described as follows: HBE2 assay: Ussing chamber assay of CFTR-mediated short-circuit currents. In kind it is cell-based. How it is done: as §1, §2
as §3, with “CaCl2,” for “CaCl2),”
as §4
as §5, with “44 nM (6R,12R)-17-amino-12-methyl-6,15-bis(trifluoromethyl)-13,19-dioxa-3,4,18-triazatricyclo[12.3.1.12,5]nonadeca-1(18),2,4,14,16-pentaen-6-ol” for “1 μM Ivacaftor”, “1 and 3” for “10”, “[…]” for “20%”

[4] abbreviates: F508del/MF-HBE, 18-24 hours with 1 μM Ivacaftor, 20% human serum, compared to known Vertex corrector with Tezacaftor and Ivacaftor.
Setting [5] is: F508del/MF-HBE, 18-24 hours with 1 μM Ivacaftor, 20% human serum.

As usually defined, the EC50 is the concentration giving half of the maximal effect.

Some results are limits rather than exact numbers.

Turning to `Cc1cccc(C)c1-c1cc2nc(n1)NS(=O)(=O)c1cccc(c1)C(=O)N1CCNC(CO2)C1` (stereo not drawn), the ring closure, crude yield in data set [1] was 22%.
`Cc1cccc(C)c1-c1cc2nc(n1)NS(=O)(=O)c1cccc(c1)C(=O)N1[C@@H](c3cccc(N(C)C4CC5(CC5)C4)n3)CC[C@@H](C(C)C)[C@H]1CO2` (single isomer, unassigned) [Compound 391, 13-(2,6-dimethylphenyl)-7-isopropyl-4-[6-[methyl(spiro[2.3]hexan-5-yl)amino]-2-pyridyl]-17,17-dioxo-10-oxa-17λ^6-thia-3,14,16,23-tetrazatetracyclo[16.3.1.111,15.03,8]tricosa-1(21),11,13,15(23),18(22),19-hexaen-2-one]: the “HBE Activity at 10 μM (%)” value in data set [2] is “++ (++ is 30-60%)”.
Still for that read-out and setting: in the case of `Cc1cccc(C)c1-c1cc2nc(n1)NS(=O)(=O)c1cccc(c1)C(=O)N1[C@@H](c3ncc(OC(C)C)cn3)CC[C@@H](CC(C)C)[C@H]1CO2` (single isomer, unassigned) [Compound 392, 13-(2,6-dimethylphenyl)-7-isobutyl-4-(5-isopropoxypyrimidin-2-yl)-17,17-dioxo-10-oxa-17λ^6-thia-3,14,16,23-tetrazatetracyclo[16.3.1.111,15.03,8]tricosa-1(21),11,13,15(23),18(22),19-hexaen-2-one] it was “++ (++ is 30-60%)”.
With `Cc1cccc(C)c1-c1cc2nc(n1)NS(=O)(=O)c1cccc(c1)C(=O)N1[C@@H](c3ncc(OC(C)C)cn3)CC[C@@H](CC(C)C)[C@H]1CO2` (single isomer, unassigned) [Compound 393, 13-(2,6-dimethylphenyl)-7-isobutyl-4-(5-isopropoxypyrimidin-2-yl)-17,17-dioxo-10-oxa-17λ^6-thia-3,14,16,23-tetrazatetracyclo[16.3.1.111,15.03,8]tricosa-1(21),11,13,15(23),18(22),19-hexaen-2-one], the activation at 3 µM in data set [3] was above 60%. Also, the “HBE Activity at 10 μM (%)” value in data set [2] is “+++ (+++ is >60%)”.
Regarding `Cc1cccc(C)c1-c1cc2nc(n1)NS(=O)(=O)c1cccc(c1)C(=O)N1[C@H](CCC[C@@H]1c1ccccn1)CO2` [Compound 327], in data set [2] (setting [4]), the “HBE Max activity (%)” value was “++ (++ is 30-60%)”. Also, the EC50 in data set [2] (setting [5]) lay in the range of 3 to 30 µM.
For the molecule `Cc1cccc(C)c1-c1cc2nc(n1)NS(=O)(=O)c1cccc(c1)C(=O)N1[C@H](CCC[C@@H]1c1ccccn1)CO2` [Compound 328], in data set [2] (setting [4]), the Emax lay within 30 to 60%. Also, the EC50 in data set [2] (setting [5]) was in the range of 1 to 3 µM.
Turning to `Cc1cccc(C)c1-c1cc2nc(n1)NS(=O)(=O)c1cccc(c1)C(=O)N1C(c3ncc(OC(C)C)cn3)CCC(C(C)C)C1CO2` (stereo not drawn) [Compound 371], the Emax in data set [2] (setting [4]) was above 60%. The 50% effective concentration (EC50) in data set [2] (setting [5]) was below 1 µM.
For `Cc1cccc(C)c1-c1cc2nc(n1)NS(=O)(=O)c1cccc(c1)C(=O)N1C(c3ncc(OC(C)C)cn3)CCC(CC(C)C)C1CO2` (stereo not drawn) [Compound 414], the “HBE Activity at 10 μM (%)” value in data set [2] is reported as “+++ (+++ is >60%)”.
